From US20260315436A1, “METHOD OF TREATING DISORDERS WITH SURF1 MALFUNCTION” (Cure Mito Foundation, priority 2023, published 2026) come the findings set out here.

What all share (format): cell-based, human
Data set [1] concerns GM28010 SURF1 mutant fibroblasts. In words: Seahorse mitochondrial stress test, fibroblast cell line GM28010 (Experiment 2, combinations and single compounds). To be noted: 48 h. The method, then: (§1) In order to evaluate selected compounds' impact on mitochondrial function in patient-derived fibroblasts compared to controls, three seahorse assays were conducted, Exp. 1: Fibroblast cell line GM28010—single compounds; Exp. 2. Fibroblast cell line GM28010—combination of compounds+ Single compounds; and Exp. 3: Fibroblast cell line GM28012—single compounds. Seahorse XF24 Extracellular Flux Analyzers continuously measure oxygen concentration and proton flux in the cell supernatant over time (Wu et al., 2007). The oxygen concentration and proton flux measurements are converted in OCR and ECAR values. This enables a direct quantification of mitochondrial respiration and glycolysis. The aim of the seahorse assays is to evaluate the impact of selected compounds on mitochondrial function in patient-derived fibroblasts compared to controls. Compounds used in the seahorse assays include posacanazole, sertaconazole, glabridin, zinglibroside (ginsenoside Z R1), AM281, cysteamine bitrartate, PF-06447475, losmapimod, telepravir, miltefosine, incyclinide, poziotinib, and methylene blue.
(§2) • Basal Oxygen Consumption (OCR): This reflects the cellular oxygen usage under basal conditions, encompassing both energy production (ATP turnover) and background oxygen leak from the mitochondria. • Oligomycin Injection: Oligomycin is a compound that inhibits ATP synthase, an enzyme crucial for ATP production within mitochondria. • Oligomycin-resistant Respiration: After oligomycin injection, minimal oxygen consumption persists, representing non-ATP linked oxygen leak from the mitochondria, often termed proton leak. • ATP-linked Respiration: This value is derived by subtracting the oligomycin-resistant respiration from the basal OCR. It signifies the oxygen consumption specifically linked to ATP production through mitochondrial oxidative phosphorylation. • Mitochondrial Bioenergetic Efficiency: This parameter reflects the percentage decrease in oxygen consumption observed after oligomycin injection, indicating the mitochondria's efficiency in utilizing oxygen for ATP generation. • FCCP Injection: FCCP is a chemical that disrupts the link between mitochondrial electron transport and ATP production. • Maximal Respiration: Following FCCP injection, the highest oxygen consumption rate is measured, representing the maximum capacity of the mitochondria to utilize oxygen for respiration. • Spare Respiratory Capacity: This parameter is calculated by subtracting basal respiration from maximal respiration.
GM28010 is a primary human fibroblast cell line that was obtained from patients with SURF1 Leigh syndrome. It was purchased from the Coriell Cell Repositories (Camden, N.J., repository number GM28010).
GM00038 is a primary human fibroblast cell line purchased from the Coriell Cell Repositories (Camden, N.J.; repository number GM00038). GM00038 was used as a healthy control.
Fibroblasts were grown in glucose according to recommendation. Cells were plated in XF96 plates in culture medium and plated at 10,000 cells/well. The day after plating, cells were treated with compounds. Treatments completed in glucose medium Compounds were tested at for 48 hours. The compounds were incubated at (37 C, 5% CO2) until the day of the experiment.
The fibroblasts were run at passage numbers: GM28010 SURF1 Fibroblasts P5.
The Assay Medium was 10 mM glucose or galactose DMEM supplemented with 2 mM glutamine and 1 mM pyruvate. Injection Ports for basal glucose: Port A: 2 μM oligomycin; Port B: 2.5 μM FCCP; Port C: 4 μM FCCP; and Port D: 2 μM rotenone and antimycin A. The Data were normalized to cell number per well after the run. The Hoechst-stained nuclei were counted with a Operetta High-Content Imager.

Data set [2] has the same test system. In words: Seahorse mitochondrial stress test, fibroblast cell line GM28010 (Experiment 1, single compounds). The settings on record: 48 h. Here is the method:
as §1
Fibroblast cell line GM28010 is a primary human fibroblast cell line obtained from patients with SURF1 Leigh syndrome. It was purchased from the Coriell Cell Repositories (Camden, NJ, repository number GM28010). Cell line GM00038 was used as a healthy control for GM28010 and is a primary human fibroblast purchased from the Coriell Cell Repositories (Camden, NJ, repository number GM00038).
Fibroblasts were grown in glucose according to recommendation.
Cells were plated in XF96 plates in culture medium and were plated at 10,000 cells/well.
The day after plating, cells were treated with the compounds in Table 1. The treatments were completed in glucose medium and galactose medium. The compounds were tested at for 48 hours. The compounds were incubated at (37 C, 5% CO2) until the day of the experiment.
*Fibroblasts were run at passage numbers: GM28010 SURF1 Fibroblasts P5; GM00038F controls P9.
• Assay Medium: 10 mM glucose or galactose DMEM supplemented with 2 mM glutamine and 1 mM pyruvate. • Injection Ports for basal glucose: Port A: 2 μM oligomycin; Port B: 2.5 μM FCCP; Port C: 4 μM FCCP; and Port D: 2 μM rotenone and antimycin A.
Data were normalized to cell number per well after the run. The Hoechst-stained nuclei were counted with the Operetta High-Content Imager.
as §2

Data set [3] has as its system GM28012 SURF1 fibroblasts. In words: Seahorse mitochondrial stress test, fibroblast cell line GM28012 (Experiment 3, single compounds). To be noted: 48 h; for total ATP: highest concentration (10 uM). The method, then:
as §1, §2
GM28010 primary human fibroblasts obtained from patients with SURF1 Leigh syndrome were purchased from the Coriell Cell Repositories (Camden, N.J.; repository number GM28010).
GM00038 primary human fibroblasts purchased from the Coriell Cell Repositories (Camden, N.J., repository number GM00038) and were used as a healthy control.
Fibroblasts were grown in glucose according to recommendation. Cells were plated in XF96 plates in culture medium and plated at 10,000 cells/well. The day after plating, the cells were treated with the compounds. The treatments completed in glucose medium and galactose medium. The compounds were tested at for 48 hours. The compounds were incubated at (37 C, 5% CO2) until the day of the experiment. The fibroblasts were run at passage numbers: GM28012 SURF1 Fibroblasts P5.
The assay medium was 10 mM glucose or galactose DMEM supplemented with 2 mM glutamine and 1 mM pyruvate. Injection Ports for basal glucose: Port A: 2 μM oligomycin; Port B: 2.5 μM FCCP; Port C: 4 μM FCCP; and Port D: 2 μM rotenone and antimycin A.
The data were normalized to cell number per well after the run. The Hoechst-stained nuclei were counted with a Operetta High-Content Imager.

Setting [4] is: combinations at 1 μM losmapimod, 10 μM Ginsenoside Z R1, 10 μM PF-06447475, single compounds 1, 5, 10 μM.
The mark [5] stands for this setting: glucose and galactose conditions.
[6] abbreviates: glucose and galactose conditions, listed as Posacanazole.
Where [7] appears, read: glucose-cultured cells, listed as Telepravir.
[8] abbreviates: both glucose and galactose, listed as Cysteamine Bitrartate.

As for `CN(C)c1ccc2nc3ccc(=[N+](C)C)cc-3sc2c1` [Methylene Blue, methylene blue], in data set [1] (setting [4]), the “ATP production rate through OXPHOS” value is “dose-dependent decrease in ATP production through OXPHOS”, the “respiration (oxygen consumption rate)” value is “decreased oxygen consumption rates” and the “total ATP production rates” value is on record as “maintain ATP production rates”. Also, the “ATP production through glycolysis” value in data set [1] (combinations at 1 μM losmapimod, 10 μM Ginsenoside Z R1, single compounds 1, 5, 10 μM) is “increase in ATP production through glycolysis”.

Turning to `CC[C@@H]([C@H](C)O)n1ncn(-c2ccc(N3CCN(c4ccc(OC[C@@H]5CO[C@@](Cn6cncn6)(c6ccc(F)cc6F)C5)cc4)CC3)cc2)c1=O` [Posaconazole, posaconazole], the toxicity entry in data set [2] (all concentrations) is given as “toxic at all conc”. For the same compound, the respiration result was “did not result in major changes” in data set [2] (setting [5]); “↓ respiration” in data set [2] (setting [6]); “decreased respiration” in data set [2] (higher concentrations); “decreased respiration” in data set [3] (setting [5]); “↓ respiration, total ATP rate” in data set [3] (setting [6]). Moreover, the results for the “total ATP production rate” value in data set [3] and in data set [3] (listed as Posacanazole) were “compensation with increased glycolysis” and “compensated by glycolysis”, respectively. The “total ATP” value in data set [3] is “total ATP drops”; in data set [3] (listed as Posacanazole), “(10 uM) where ATP drops”.

For `CCC[C@H](NC(=O)[C@@H]1[C@H]2CCC[C@H]2CN1C(=O)[C@@H](NC(=O)[C@@H](NC(=O)c1cnccn1)C1CCCCC1)C(C)(C)C)C(=O)C(=O)NC1CC1` [Telaprevir, telaprevir], the respiration result in data set [2] (setting [5]) and in data set [3] (galactose conditions) was “did not result in major changes” in each case. Besides, the “ATP production through OXPHOS” value in data set [3] is recorded as “Dose-dependent increase”; in data set [3] (glucose) it was “dose-dependent increase”; in data set [3] (glucose, listed as Telepravir), “dependent ↑ATP-Linked”. For the same compound, in data set [3], the “total ATP production rate” value is “without changes”. Further, the ATP-linked respiration entry is given as “dose-dependent increase” in data set [3] (glucose-cultured cells) and “dependent ↑ATP-Linked” in data set [3] (setting [7]). The maximal respiration entry was “without any changes” in data set [3] (glucose-cultured cells) and “through OXPHOS, no change” in data set [3] (setting [7]).

Consider `NCCS` [cysteamine bitartrate], for which the “respiration (oxygen consumption rate)” value in data set [1] (setting [4]) is reported as “did not alter oxygen consumption rates”. The “ATP production rate through glycolysis” value in data set [1] (higher concentrations) is reported as “decreased”. For the same compound, in data set [3], the “ATP production through OXPHOS” value was “Dose-dependent increase”, the “ATP production through glycolysis” value was “decrease ATP production through glycolysis” and the “total ATP production rate” value is reported as “Dose-dependent increase”. Further, in data set [3] (both glucose and galactose), the ATP-linked respiration entry was “increased basal respiration and ATP-Linked respiration in a dose-dependent manner”; the basal respiration entry is “increased basal respiration and ATP-Linked respiration in a dose-dependent manner”. In addition, in data set [3] (setting [8]), the ATP-linked respiration result was “↑basal respiration and ATP-”; the basal respiration result was “↑basal respiration and ATP-”. In data set [3] (glucose-cultured cells), the glycolysis result is recorded as “dose-dependent decrease”, the maximal respiration entry is “dose-dependent decrease” and the toxicity entry is recorded as “some toxicity”. In addition, the “ATP production through glycolysis” value in data set [3] (listed as Cysteamine Bitrartate) is “conditions. ↓ATP production”.
